From patent US20070213339A1 (Bayer Pharmaceuticals Corporation, priority 2004, published 2007) come the findings set out here.

pIC50: −log10 of the molar value. Some results are limits rather than exact numbers.

The assay deals with Colo205 human colon carcinoma cell line. The assay is described as follows: In vitro tumor cell proliferation assay (MTS, CellTiter 96 Aqueous One Solution). Format: cell-based. As to conditions: COLO 205, Colo205 cells, 72 hours compound exposure, MTS absorbance at 490 nm, read-out: IC50 (concentration of test compound required to inhibit proliferation of 50% of the cells). How it is done: In Vitro Tumor Cell Proliferation Assay
The adherent H460 human non-small cell lung carcinoma and Colo205 human colon carcinoma cell lines were purchased from the American Type and Culture Collection (ATCC, Manassas, Va.) and maintained in RPMI-1640 growth media supplemented with 10% heat inactivated fetal bovine serum (Gibco, Invitrogen Corp. Grand Island, N.Y.). At 37° C. in a humidified atmosphere of 5% CO2.
The CellTiter 960 Aqueous One Solution kit, MTS, (Promega, Madison, Wis.) was used to measure proliferation of tumor cell lines in vitro. This method monitors the bioreduction of a tetrazolium dye as a measure of cell viability. On Day 0, exponentially growing cells were trypsinized, resuspended in RPMI-1640 growth media supplemented with 10% FCS, 100 u/ml of penicillin G and 100 ug/ml of streptomycin sulfate, and seeded at 2000 cells per well into 96 well microtiter plates. Cells were incubated overnight in a humidified atmosphere of 5% CO2 at 37° C. On Day 1, serial dilutions of compounds were prepared at 2× the finial assay concentration. One hundred microliters of 2× solution was added to test wells in duplicate and control wells received no test compound. The final drug concentration ranged from 0 to 10-20 um in a 5 point dose-response curve. Cells were incubated in the presence of test compounds in a humidified atmosphere of 5% CO2 at 37° C. for 72 hours. After 72 hours of compound exposure, 40 ul of Promega CellTiter 960 Aqueous One Solution was added to each well and absorbance at 490 n-M was measured using a multi-well plate reader. Percent inhibition of proliferation was calculated using the following formula: 100×(1−Absorbancetreated−Background/(Absorbancecontrol−Background)
Absorbancetreated=absorbance at 490 nm in test wells, cells with test compound
Absorbancecontrol=absorbance at 490 nm in control wells, cells with no test compound
Background=absorbance 490 nm in wells containing media and no cells
The concentration of test compound required to inhibit proliferation of 50% of the cells (IC50) was determined by linear regression analysis.
Representative compounds of the invention were tested in the above-described Colo205 human colon carcinoma cell line in vitro assay and found to inhibit human colon carcinoma cell proliferation, and are summarized as follows: […]
On to `N#Cc1cccnc1N1CCN(c2c(F)cc3c(=O)c(C(=O)O)cn(-c4ccc(CN5CCCC5)cc4F)c3c2Cl)CC1` [Example 45, 8-chloro-7-[4-(3-cyanopyridin-2-yl)piperazin-1-yl]-6-fluoro-1-[2-fluoro-4-(pyrrolidin-1-ylmethyl)phenyl]-4-oxo-1,4-dihydroquinoline-3-carboxylic acid], for which the pIC50 is over 6.30.

In the case of `O=C(O)c1cn(-c2ccc(CN3CCCC3)cc2F)c2c(Cl)c(N3CCN(c4ccccn4)CC3)c(F)cc2c1=O` [Example 46, 8-chloro-6-fluoro-1-[2-fluoro-4-(pyrrolidin-1-ylmethyl)phenyl]-4-oxo-7-(4-pyridin-2-ylpiperazin-1-yl)-1,4-dihydroquinoline-3-carboxylic acid], the pIC50 is 5.70 to 6.30. Then `N#Cc1ccc(N2CCN(c3c(F)cc4c(=O)c(C(=O)O)cn(-c5ccc(CN6CCCC6)cc5F)c4c3Cl)CC2)nc1` [Example 47, 8-chloro-7-[4-(5-cyanopyridin-2-yl)piperazin-1-yl]-6-fluoro-1-[2-fluoro-4-(pyrrolidin-1-ylmethyl)phenyl]-4-oxo-1,4-dihydroquinoline-3-carboxylic acid], with 5.70 to 6.30; and `N#Cc1ccc(N2CCN(c3c(F)cc4c(=O)c(C(=O)O)cn(-c5ccc(CN6CCCC6)cc5F)c4c3Cl)CC2)cc1` [Example 48, 8-chloro-7-[4-(4-cyanophenyl)piperazin-1-yl]-6-fluoro-1-[2-fluoro-4-(pyrrolidin-1-ylmethyl)phenyl]-4-oxo-1,4-dihydroquinoline-3-carboxylic acid], with over 6.30.

With `CON(C)Cc1ccc(-n2cc(C(=O)O)c(=O)c3cc(F)c(N4CCN(c5ccccn5)CC4)c(Cl)c32)cc1` [Example 49, 8-chloro-6-fluoro-1-(4-{[methoxy(methyl)-amino]methyl}phenyl)-4-oxo-7-(4-pyridin-2-ylpiperazin-1-yl)-1,4-dihydroquinoline-3-carboxylic acid], the pIC50 was 4.70 to 5.70. Then `CON(C)Cc1ccc(-n2cc(C(=O)O)c(=O)c3cc(F)c(N4CCN(c5ncccn5)CC4)c(Cl)c32)cc1` [Example 50, 8-chloro-6-fluoro-1-(4-{[methoxy(methyl)-amino]methyl}phenyl)-4-oxo-7-(4-pyrimidin-2-ylpiperazin-1-yl)-1,4-dihydroquinoline-3-carboxylic acid], with 4.70 to 5.70; and `CON(C)Cc1ccc(-n2cc(C(=O)O)c(=O)c3cc(F)c(N4CCN(c5ccc(F)cc5)CC4)c(Cl)c32)cc1` [Example 51, 8-chloro-6-fluoro-7-[4-(4-fluorophenyl)-piperazin-1-yl]-1-(4-{[methoxy(methyl)amino]methyl}phenyl)-4-oxo-1,4-dihydroquinoline-3-carboxylic acid], with 4.70 to 5.70; and `CON(C)Cc1ccc(-n2cc(C(=O)O)c(=O)c3cc(F)c(N4CCN(c5ccc(Cl)cc5)CC4)c(Cl)c32)cc1` [Example 52, 8-chloro-7-[4-(4-chlorophenyl)piperazin-1-yl]-6-fluoro-1-(4-{[methoxy(methyl)amino]methyl}phenyl)-4-oxo-1,4-dihydroquinoline-3-carboxylic acid], with 4.70 to 5.70.

For `CON(C)Cc1ccc(-n2cc(C(=O)O)c(=O)c3cc(F)c(N4CCN(c5ccccc5C#N)CC4)c(Cl)c32)cc1` [Example 53, 8-chloro-7-[4-(2-cyanophenyl)piperazin-1-yl]-6-fluoro-1-(4-{[methoxy(methyl)amino]methyl}phenyl)-4-oxo-1,4-dihydroquinoline-3-carboxylic acid], the pIC50 is 4.70 to 5.70. Then `CON(C)Cc1ccc(-n2cc(C(=O)O)c(=O)c3cc(F)c(N4CCN(c5ncccc5C#N)CC4)c(Cl)c32)cc1` [Example 54, 8-chloro-7-[4-(3-cyanopyridin-2-yl)piperazin-1-yl]-6-fluoro-1-(4-{[methoxy(methyl)amino]methyl}phenyl)-4-oxo-1,4-dihydroquinoline-3-carboxylic acid], with 4.70 to 5.70; and `COCCN(C)Cc1ccc(-n2cc(C(=O)O)c(=O)c3cc(F)c(N4CCN(c5ccccn5)CC4)c(Cl)c32)cc1` [Example 55], with 5.70 to 6.30; and `O=C(O)c1cn(-c2ccc(CNC3CCCC3)cc2)c2c(Cl)c(N3CCN(c4ccccn4)CC3)c(F)cc2c1=O` [Example 56, 8-chloro-1-{4-[(cyclopentylamino)-methyl]phenyl}-6-fluoro-4-oxo-7-(4-pyridin-2-ylpiperazin-1-yl)-1,4-dihydroquinoline-3-carboxylic acid], with over 6.30. As for `O=C(O)c1cn(-c2ccc(CNC3CCCC3)cc2)c2c(Cl)c(N3CCN(c4ncccn4)CC3)c(F)cc2c1=O` [Example 57, 8-chloro-1-{4-[(cyclopentylamino)methyl]-phenyl}-6-fluoro-4-oxo-7-(4-pyrimidin-2-ylpiperazin-1-yl)-1,4-dihydroquinoline-3-carboxylic acid], the pIC50 was over 6.30. Take `O=C(O)c1cn(-c2ccc(CNC3CCC3)cc2)c2c(Cl)c(N3CCN(c4ccccn4)CC3)c(F)cc2c1=O` [Example 58, 8-chloro-1-{4-[(cyclobutylamino)methyl]-phenyl}-6-fluoro-4-oxo-7-(4-pyridin-2-ylpiperazin-1-yl)-1,4-dihydroquinoline-3-carboxylic acid]: the pIC50 is over 6.30.

Take `O=C(O)c1cn(-c2ccc(CNC3CC3)cc2)c2c(Cl)c(N3CCN(c4ccccn4)CC3)c(F)cc2c1=O` [Example 59, 8-chloro-1-{4-[(cyclopropylamino)-methyl]phenyl}-6-fluoro-4-oxo-7-(4-pyridin-2-ylpiperazin-1-yl)-1,4-dihydroquinoline-3-carboxylic acid]: the pIC50 is over 6.30. Then `O=C(O)c1cn(-c2ccc(CNC3CC3)cc2)c2c(Cl)c(N3CCN(c4ncccn4)CC3)c(F)cc2c1=O` [Example 60, 8-chloro-1-{4-[(cyclopropylamino)methyl]-phenyl}-6-fluoro-4-oxo-7-(4-pyrimidin-2-ylpiperazin-1-yl)-1,4-dihydroquinoline-3-carboxylic acid], with over 6.30; and `CN(Cc1ccc(-n2cc(C(=O)O)c(=O)c3cc(F)c(N4CCN(c5ccccn5)CC4)c(Cl)c32)cc1)C1CCCCC1` [Example 61, 8-chloro-1-(4-{[cyclohexyl(methyl)amino]-methyl}phenyl)-6-fluoro-4-oxo-7-(4-pyridin-2-ylpiperazin-1-yl)-1,4-dihydroquinoline-3-carboxylic acid], with over 6.30. With `CN(Cc1ccc(-n2cc(C(=O)O)c(=O)c3cc(F)c(N4CCN(c5ncccn5)CC4)c(Cl)c32)cc1)C1CCCCC1` [Example 62, 8-chloro-1-(4-{[cyclohexyl(methyl)amino]-methyl}phenyl)-6-fluoro-4-oxo-7-(4-pyrimidin-2-ylpiperazin-1-yl)-1,4-dihydroquinoline-3-carboxylic acid] the figure was over 6.30; with `O=C(O)c1cn(-c2cccc(CN3CCCCC3)c2)c2c(Cl)c(N3CCN(c4ccccc4F)CC3)c(F)cc2c1=O` [Example 63, 8-chloro-6-fluoro-7-[4-(2-fluorophenyl)-piperazin-1-yl]-4-oxo-1-[3-(piperidin-1-ylmethyl)phenyl]-1,4-dihydroquinoline-3-carboxylic acid], 4.70 to 5.70. Consider `O=C(O)c1cn(-c2cccc(CN3CCCCC3)c2)c2c(Cl)c(N3CCN(c4ccc(F)cc4F)CC3)c(F)cc2c1=O` [Example 64, 8-chloro-7-[4-(2,4-difluorophenyl)piperazin-1-yl]-6-fluoro-4-oxo-1-[3-(piperidin-1-ylmethyl)phenyl]-1,4-dihydroquinoline-3-carboxylic acid], for which the pIC50 was 4.70 to 5.70.
